Data: patent publication US10322111B2, “Chemokine receptor binding heterocyclic compounds with enhanced efficacy” (Genzyme Corporation, priority 2001, dated 2019)
Like-named read-outs stand apart in the source and are kept apart here.

What was measured:
[1] = system: CD34 positive progenitor cells
[2] = system: granulocyte macrophage (CFU-GM), erythroid (BFU-E), and multipotential (CFU-GEMM) progenitor cells; details: mice; for Fold Change Compared to Time 0, Progenitors, BFU-E / Fold Change Compared to Time 0, Progenitors, CFU-GEMM / Fold Change Compared to Time 0, Progenitors, GM / Absolute Progenitors Per ML Blood, BFU-E / Absolute Progenitors Per ML Blood, CFU-GEMM / Absolute Progenitors Per ML Blood, CFU-GM: methylcellulose culture; for Absolute Number Progenitors Per ML Blood, BFU-E / Absolute Number Progenitors Per ML Blood, CFU-GEMM / Absolute Number Progenitors Per ML Blood, CFU-GM: 1 hour post administration; for Absolute Progenitors Per ML Blood, BFU-E / Absolute Progenitors Per ML Blood, CFU-GEMM / Absolute Progenitors Per ML Blood, CFU-GM: single s.c. 5 mg/Kg
[3] = system: unseparated and low density nucleated cells; details: 80 μg/kg s.c.

In the case of c1cc(CN2CCCNCCNCCCNCC2)ccc1CN1CCCNCCNCCCNCC1 [AMD3100, 1,1′-[1,4-phenylene-bis(methylene)]-bis-1,4,8,11-tetraazacyclotetradecane], the “time post-administration at which elevation of CD34 positive progenitor cells maximized” value ([1]; human volunteers, 80 μg/kg s.c.) was 6 h, the CD34 positive cells ([1]; volunteer P1, 1 Hr after 80 μg/kg s.c.) was “.04 percentage of the total WBC's” and the CD34 positive cells ([1]; volunteer P1, 3 Hr after 80 μg/kg s.c.) was “.07 percentage of the total WBC's”. For the same compound, the CD34 positive cells ([1]; volunteer P1, 6 Hr after 80 μg/kg s.c.) was “.11 percentage of the total WBC's”, the CD34 positive cells ([1]; volunteer P1, 9 Hr after 80 μg/kg s.c.) was “.11 percentage of the total WBC's” and the CD34 positive cells ([1]; volunteer P1, Day 2 after 80 μg/kg s.c.) was “.08 percentage of the total WBC's”. For the same compound, the CD34 positive cells ([1]; volunteer P2, 1 Hr after 80 μg/kg s.c.) was “.06 percentage of the total WBC's”, the CD34 positive cells ([1]; volunteer P2, 3 Hr after 80 μg/kg s.c.) was “.08 percentage of the total WBC's” and the CD34 positive cells ([1]; volunteer P2, 6 Hr after 80 μg/kg s.c.) was “.13 percentage of the total WBC's”. The CD34 positive cells ([1]; volunteer P2, 9 Hr after 80 μg/kg s.c.) was “.11 percentage of the total WBC's”, the CD34 positive cells ([1]; volunteer P2, Day 2 after 80 μg/kg s.c.) was “.12 percentage of the total WBC's” and the CD34 positive cells ([1]; volunteer P3, 1 Hr after 80 μg/kg s.c.) was “.16 percentage of the total WBC's”. The CD34 positive cells ([1]; volunteer P3, 3 Hr after 80 μg/kg s.c.) was “.06 percentage of the total WBC's”, the CD34 positive cells ([1]; volunteer P3, 9 Hr after 80 μg/kg s.c.) was “.11 percentage of the total WBC's” and the CD34 positive cells ([1]; volunteer P3, Day 2 after 80 μg/kg s.c.) was “.07 percentage of the total WBC's”. For the same compound, the CD34 positive cells ([1]; volunteer P4, 1 Hr after 80 μg/kg s.c.) was “.07 percentage of the total WBC's”, the CD34 positive cells ([1]; volunteer P4, 3 Hr after 80 μg/kg s.c.) was “.09 percentage of the total WBC's” and the CD34 positive cells ([1]; volunteer P4, 6 Hr after 80 μg/kg s.c.) was “.09 percentage of the total WBC's”. The CD34 positive cells ([1]; volunteer P4, 9 Hr after 80 μg/kg s.c.) was “.1 percentage of the total WBC's”, the CD34 positive cells ([1]; volunteer P4, Day 2 after 80 μg/kg s.c.) was “.1 percentage of the total WBC's” and the CD34 positive cells ([1]; volunteer P5, 1 Hr after 80 μg/kg s.c.) was “.12 percentage of the total WBC's”. The CD34 positive cells ([1]; volunteer P5, 3 Hr after 80 μg/kg s.c.) was “.13 percentage of the total WBC's”, the CD34 positive cells ([1]; volunteer P5, 6 Hr after 80 μg/kg s.c.) was “.2 percentage of the total WBC's” and the CD34 positive cells ([1]; volunteer P5, 9 Hr after 80 μg/kg s.c.) was “.2 percentage of the total WBC's”. For the same compound, the CD34 positive cells ([1]; volunteer P5, Day 2 after 80 μg/kg s.c.) was “.16 percentage of the total WBC's”, the “Fold Change Compared to Time 0, Progenitors, BFU-E” value ([2]; Time 2′) was 2.07 fold and the “Fold Change Compared to Time 0, Progenitors, CFU-GEMM” value ([2]; Time 2′) was 1.85 fold. The “Fold Change Compared to Time 0, Progenitors, GM” value ([2]; Time 2′) was 2.86 fold, the “Fold Change Compared to Time 0, Progenitors, BFU-E” value ([2]; Time 15″) was 2.72 fold and the “Fold Change Compared to Time 0, Progenitors, CFU-GEMM” value ([2]; Time 15″) was 3.51 fold. For the same compound, the “Fold Change Compared to Time 0, Progenitors, GM” value ([2]; Time 15″) was 2.73 fold, the “Fold Change Compared to Time 0, Progenitors, BFU-E” value ([2]; Time 30″) was 4.24 fold and the “Fold Change Compared to Time 0, Progenitors, CFU-GEMM” value ([2]; Time 30″) was 4.41 fold. The “Fold Change Compared to Time 0, Progenitors, GM” value ([2]; Time 30″) was 6.23 fold, the “Absolute Number Progenitors Per ML Blood, BFU-E” value ([2]; single s.c. 1 mg/kg) was 62 Per ML Blood and the “Absolute Number Progenitors Per ML Blood, CFU-GEMM” value ([2]; single s.c. 1 mg/kg) was 27.1 Per ML Blood. For the same compound, the “Absolute Number Progenitors Per ML Blood, CFU-GM” value ([2]; single s.c. 1 mg/kg) was 424 Per ML Blood, the “Absolute Number Progenitors Per ML Blood, BFU-E” value ([2]; single s.c. 2.5 mg/kg) was 98.9 Per ML Blood and the “Absolute Number Progenitors Per ML Blood, CFU-GEMM” value ([2]; single s.c. 2.5 mg/kg) was 70.6 Per ML Blood. The “Absolute Number Progenitors Per ML Blood, CFU-GM” value ([2]; single s.c. 2.5 mg/kg) was 687.6 Per ML Blood, the “Absolute Progenitors Per ML Blood, BFU-E” value ([2]; 15″) was 134.5 Per ML Blood and the “Absolute Progenitors Per ML Blood, CFU-GEMM” value ([2]; 15″) was 90.4 Per ML Blood. The “Absolute Progenitors Per ML Blood, CFU-GM” value ([2]; 15″) was 791.6 Per ML Blood, the “Absolute Progenitors Per ML Blood, BFU-E” value ([2]; 30″) was 209.3 Per ML Blood and the “Absolute Progenitors Per ML Blood, CFU-GEMM” value ([2]; 30″) was 113.5 Per ML Blood. The “Absolute Progenitors Per ML Blood, CFU-GM” value ([2]; 30″) was 1805.5 Per ML Blood, the “Absolute Progenitors Per ML Blood, BFU-E” value ([2]; 120″) was 102.3 Per ML Blood and the “Absolute Progenitors Per ML Blood, CFU-GEMM” value ([2]; 120″) was 47.6 Per ML Blood. For the same compound, the “Absolute Progenitors Per ML Blood, CFU-GM” value ([2]; 120″) was 828.7 Per ML Blood, the “Absolute Number Progenitors Per ML Blood, BFU-E” value ([2]; single s.c. 5 mg/kg) was 92.8 Per ML Blood and the “Absolute Number Progenitors Per ML Blood, CFU-GEMM” value ([2]; single s.c. 5 mg/kg) was 69.5 Per ML Blood. The “Absolute Number Progenitors Per ML Blood, CFU-GM” value ([2]; single s.c. 5 mg/kg) was 608.4 Per ML Blood, the “Absolute Number Progenitors Per ML Blood, BFU-E” value ([2]; single s.c. 10 mg/kg) was 120.5 Per ML Blood and the “Absolute Number Progenitors Per ML Blood, CFU-GEMM” value ([2]; single s.c. 10 mg/kg) was 79.8 Per ML Blood. For the same compound, the “Absolute Number Progenitors Per ML Blood, CFU-GM” value ([2]; single s.c. 10 mg/kg) was 825.6 Per ML Blood, the “FOLD CHANGE COMPARED TO TIME = 0, nucleated cellularity PBL-LD” value ([3]; P1, T = 1 h after injection) was 2.07 fold and the “FOLD CHANGE COMPARED TO TIME = 0, nucleated cellularity PBL-US” value ([3]; P1, T = 1 h after injection) was 2.54 fold. For the same compound, the “FOLD CHANGE COMPARED TO TIME = 0, nucleated cellularity PBL-LD” value ([3]; P1, T = 3 h after injection) was 2.83 fold, the “FOLD CHANGE COMPARED TO TIME = 0, nucleated cellularity PBL-US” value ([3]; P1, T = 3 h after injection) was 3.55 fold and the “FOLD CHANGE COMPARED TO TIME = 0, nucleated cellularity PBL-LD” value ([3]; P1, T = 6 h after injection) was 4.07 fold. For the same compound, the “FOLD CHANGE COMPARED TO TIME = 0, nucleated cellularity PBL-US” value ([3]; P1, T = 6 h after injection) was 3.97 fold, the “FOLD CHANGE COMPARED TO TIME = 0, nucleated cellularity PBL-LD” value ([3]; P1, T = 9 h after injection) was 3.65 fold and the “FOLD CHANGE COMPARED TO TIME = 0, nucleated cellularity PBL-US” value ([3]; P1, T = 9 h after injection) was 3.27 fold. The “FOLD CHANGE COMPARED TO TIME = 0, nucleated cellularity PBL-LD” value ([3]; P1, T = 24 h after injection) was 1.01 fold, the “FOLD CHANGE COMPARED TO TIME = 0, nucleated cellularity PBL-US” value ([3]; P1, T = 24 h after injection) was 1.21 fold and the “FOLD CHANGE COMPARED TO TIME = 0, nucleated cellularity PBL-LD” value ([3]; P2, T = 1 h after injection) was 1.99 fold. The “FOLD CHANGE COMPARED TO TIME = 0, nucleated cellularity PBL-US” value ([3]; P2, T = 1 h after injection) was 1.38 fold, the “FOLD CHANGE COMPARED TO TIME = 0, nucleated cellularity PBL-LD” value ([3]; P2, T = 3 h after injection) was 3.25 fold and the “FOLD CHANGE COMPARED TO TIME = 0, nucleated cellularity PBL-US” value ([3]; P2, T = 3 h after injection) was 2.74 fold. For the same compound, the “FOLD CHANGE COMPARED TO TIME = 0, nucleated cellularity PBL-LD” value ([3]; P2, T = 6 h after injection) was 3.90 fold, the “FOLD CHANGE COMPARED TO TIME = 0, nucleated cellularity PBL-US” value ([3]; P2, T = 6 h after injection) was 2.94 fold and the “FOLD CHANGE COMPARED TO TIME = 0, nucleated cellularity PBL-LD” value ([3]; P2, T = 9 h after injection) was 4.43 fold. The “FOLD CHANGE COMPARED TO TIME = 0, nucleated cellularity PBL-US” value ([3]; P2, T = 9 h after injection) was 3.30 fold, the “FOLD CHANGE COMPARED TO TIME = 0, nucleated cellularity PBL-LD” value ([3]; P2, T = 24 h after injection) was 1.71 fold and the “FOLD CHANGE COMPARED TO TIME = 0, nucleated cellularity PBL-US” value ([3]; P2, T = 24 h after injection) was 1.43 fold. The “FOLD CHANGE COMPARED TO TIME = 0, nucleated cellularity PBL-LD” value ([3]; P3, T = 1 h after injection) was 1.48 fold, the “FOLD CHANGE COMPARED TO TIME = 0, nucleated cellularity PBL-US” value ([3]; P3, T = 1 h after injection) was 1.38 fold and the “FOLD CHANGE COMPARED TO TIME = 0, nucleated cellularity PBL-LD” value ([3]; P3, T = 3 h after injection) was 2.17 fold. For the same compound, the “FOLD CHANGE COMPARED TO TIME = 0, nucleated cellularity PBL-US” value ([3]; P3, T = 3 h after injection) was 2.02 fold.
